# Measured values as given in PubChem BioAssay (NCI).
#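 Compound exposure: 48 hours, 5 concentrations, 96-well plates. TGI is the concentration that stops growth completely.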
# Key:
# Assay in all cases: NCI-60 cell line screen, 48 h
# [1] = tested on: SF-295 CNS
# [2] = tested on: SN12C renal
# [3] = tested on: SK-MEL-5 melanoma
# [4] = tested on: PC-3 prostate
# [5] = tested on: CCRF-CEM leukemia
# [6] = tested on: HCT-116 colon
# [7] = tested on: NCI-H460 lung
# [8] = tested on: SK-MEL-28 melanoma
# [9] = tested on: RXF 393 renal
# [10] = tested on: ACHN renal
# [11] = tested on: OVCAR-4 ovarian
# [12] = tested on: U251 CNS
# [13] = tested on: SNB-75 CNS
# [14] = tested on: SNB-19 CNS
# [15] = tested on: A498 renal
# [16] = tested on: HCT-15 colon
# [17] = tested on: COLO 205 colon
# [18] = tested on: KM12 colon
# [19] = tested on: MOLT-4 leukemia
# [20] = tested on: MDA-N
# [21] = tested on: LOX IMVI melanoma
# [22] = tested on: UACC-62 melanoma
# [23] = tested on: SF-268 CNS
# [24] = tested on: RPMI-8226 leukemia
# [25] = tested on: SK-OV-3 ovarian
# [26] = tested on: M14 melanoma
# [27] = tested on: HOP-92 NSCLC
# [28] = tested on: UACC-257 melanoma
# [29] = tested on: IGROV1 ovarian
# [30] = tested on: K-562 leukemia
# [31] = tested on: OVCAR-8 ovarian
# [32] = tested on: SR leukemia
# [33] = tested on: TK-10 renal
# [34] = tested on: MDA-MB-231 breast
# [35] = tested on: MCF7 breast
# [36] = tested on: HOP-62 NSCLC
# [37] = tested on: MALME-3M melanoma
# [38] = tested on: EKVX NSCLC
# [39] = tested on: MDA-MB-435
# [40] = tested on: SW-620 colon
# [41] = tested on: OVCAR-5 ovarian
# [42] = tested on: HCC-2998 colon
# [43] = tested on: NCI-H226 lung
# [44] = tested on: HS 578T breast
# [45] = tested on: HT29 colon
# [46] = tested on: OVCAR-3 ovarian
# [47] = tested on: CAKI-1 renal
# [48] = tested on: HL-60(TB) leukemia
# [49] = tested on: DU-145 prostate
# [50] = tested on: A549 NSCLC
# [51] = tested on: SF-539 CNS
# [52] = tested on: NCI-H23 lung
# [53] = tested on: 786-0 renal
# [54] = tested on: NCI-H522 lung
# [55] = tested on: SK-MEL-2 melanoma
# [56] = tested on: BT-549 breast
# [57] = tested on: NCI/ADR-RES ovarian
# [58] = tested on: T-47D breast
# [59] = tested on: UO-31 renal
smiles,measurement,setting,value
Nc1nc(Cl)cc(NCC2(CO)CC(CCCCc3ccccc3)C2)n1 (configuration not stated),TGI,[1],> 100 µM
same,TGI,[2],> 100 µM
same,TGI,[3],> 100 µM
same,TGI,[4],> 100 µM
same,TGI,[5],> 100 µM
same,TGI,[6],> 100 µM
same,TGI,[7],> 100 µM
same,TGI,[8],> 100 µM
same,TGI,[9],> 100 µM
same,TGI,[10],> 100 µM
same,TGI,[11],> 100 µM
same,TGI,[12],> 100 µM
same,TGI,[13],> 100 µM
same,TGI,[14],> 100 µM
same,TGI,[15],> 100 µM
same,TGI,[16],> 100 µM
same,TGI,[17],> 100 µM
same,TGI,[18],> 100 µM
same,TGI,[19],> 100 µM
same,TGI,[20],> 100 µM
same,TGI,[21],> 100 µM
same,TGI,[22],> 100 µM
same,TGI,[23],> 100 µM
same,TGI,[24],86.2 µM
same,TGI,[25],> 100 µM
same,TGI,[26],> 100 µM
same,TGI,[27],> 100 µM
same,TGI,[28],> 100 µM
same,TGI,[29],> 100 µM
same,TGI,[30],> 100 µM
same,TGI,[31],> 100 µM
same,TGI,[32],> 100 µM
same,TGI,[33],> 100 µM
same,TGI,[34],> 100 µM
same,TGI,[35],> 100 µM
same,TGI,[36],> 100 µM
same,TGI,[37],> 100 µM
same,TGI,[38],> 100 µM
same,TGI,[39],> 100 µM
same,TGI,[40],> 100 µM
same,TGI,[41],> 100 µM
same,TGI,[42],> 100 µM
same,TGI,[43],> 100 µM
same,TGI,[44],> 100 µM
same,TGI,[45],35.3 µM
same,TGI,[46],> 100 µM
same,TGI,[47],> 100 µM
same,TGI,[48],38.3 µM
same,TGI,[49],> 100 µM
same,TGI,[50],> 100 µM
same,TGI,[51],> 100 µM
same,TGI,[52],> 100 µM
same,TGI,[53],> 100 µM
same,TGI,[54],> 100 µM
same,TGI,[55],> 100 µM
same,TGI,[56],> 100 µM
Cc1nc2c(=O)[nH]c(=O)nc-2n(CCO)c1C,TGI,[1],> 100 µM
same,TGI,[2],> 100 µM
same,TGI,[3],> 100 µM
same,TGI,[4],> 100 µM
same,TGI,[5],> 100 µM
same,TGI,[6],> 100 µM
same,TGI,[57],> 100 µM
same,TGI,[7],> 100 µM
same,TGI,[8],> 100 µM
same,TGI,[9],> 100 µM
same,TGI,[10],> 100 µM
same,TGI,[11],> 100 µM
same,TGI,[12],> 100 µM
same,TGI,[13],> 100 µM
same,TGI,[14],> 100 µM
same,TGI,[15],> 100 µM
same,TGI,[16],> 100 µM
same,TGI,[17],> 100 µM
same,TGI,[18],> 100 µM
same,TGI,[58],> 100 µM
same,TGI,[19],> 100 µM
same,TGI,[20],> 100 µM
same,TGI,[21],> 100 µM
same,TGI,[22],> 100 µM
same,TGI,[23],> 100 µM
same,TGI,[24],> 100 µM
same,TGI,[25],> 100 µM
same,TGI,[26],> 100 µM
same,TGI,[27],> 100 µM
same,TGI,[28],> 100 µM
same,TGI,[29],> 100 µM
same,TGI,[30],> 100 µM
same,TGI,[31],> 100 µM
same,TGI,[32],> 100 µM
same,TGI,[33],> 100 µM
same,TGI,[34],> 100 µM
same,TGI,[35],> 100 µM
same,TGI,[36],> 100 µM
same,TGI,[37],> 100 µM
same,TGI,[38],> 100 µM
same,TGI,[39],> 100 µM
same,TGI,[40],> 100 µM
same,TGI,[41],> 100 µM
same,TGI,[42],> 100 µM
same,TGI,[43],> 100 µM
same,TGI,[44],> 100 µM
same,TGI,[59],> 100 µM
same,TGI,[45],> 100 µM
same,TGI,[46],> 100 µM
same,TGI,[47],> 100 µM
same,TGI,[49],> 100 µM
same,TGI,[50],> 100 µM
same,TGI,[51],> 100 µM
same,TGI,[52],> 100 µM
same,TGI,[53],> 100 µM
same,TGI,[54],> 100 µM
same,TGI,[55],> 100 µM
same,TGI,[56],> 100 µM
N=C(/C=C/c1ccc(-c2cn3cc(/C=C/C(=N)N4CCOCC4)ccc3n2)cc1)N1CCOCC1,TGI,[1],> 100 µM
same,TGI,[2],> 100 µM
same,TGI,[3],> 100 µM
same,TGI,[4],> 100 µM
same,TGI,[6],> 100 µM
same,TGI,[57],> 100 µM
same,TGI,[7],> 100 µM
same,TGI,[8],> 100 µM
same,TGI,[9],> 100 µM
same,TGI,[10],> 100 µM
same,TGI,[11],> 100 µM
same,TGI,[12],> 100 µM
same,TGI,[13],> 100 µM
same,TGI,[14],> 100 µM
same,TGI,[15],> 100 µM
same,TGI,[16],> 100 µM
same,TGI,[17],> 100 µM
same,TGI,[18],> 100 µM
same,TGI,[58],> 100 µM
same,TGI,[20],> 100 µM
same,TGI,[22],> 100 µM
same,TGI,[23],> 100 µM
same,TGI,[24],> 100 µM
same,TGI,[25],> 100 µM
same,TGI,[26],> 100 µM
same,TGI,[27],> 100 µM
same,TGI,[28],> 100 µM
same,TGI,[29],> 100 µM
same,TGI,[30],> 100 µM
same,TGI,[31],> 100 µM
same,TGI,[33],> 100 µM
same,TGI,[34],> 100 µM
same,TGI,[35],> 100 µM
same,TGI,[36],> 100 µM
same,TGI,[37],> 100 µM
same,TGI,[38],> 100 µM
same,TGI,[39],> 100 µM
same,TGI,[40],> 100 µM
same,TGI,[41],> 100 µM
same,TGI,[42],> 100 µM
same,TGI,[43],> 100 µM
same,TGI,[44],> 100 µM
same,TGI,[59],> 100 µM
same,TGI,[46],> 100 µM
same,TGI,[47],> 100 µM
same,TGI,[49],> 100 µM
same,TGI,[50],> 100 µM
same,TGI,[51],> 100 µM
same,TGI,[52],> 100 µM
same,TGI,[53],> 100 µM
same,TGI,[54],> 100 µM
same,TGI,[55],> 100 µM
same,TGI,[56],> 100 µM
